# From ChEMBL document CHEMBL1144227, “2,2'-Pyridoin derivatives protect HL-60 cells against oxidative stress” (Bioorg Med Chem Lett, 2008)
# Calls of active or inactive are those of the source. No cut-off for these calls is given here.
# Assays:
# HL-60 [1] = experiment: Radical scavenging activity in human HL-60 cells assessed as reduction of hydrogen peroxide-induced ROS generation at 30 uM after 1 hr by 2',7'-dichlorofluorescein diacetate based flow cytometry; type: functional, cell-based
# HL-60 [2] = experiment: Cytoprotective activity against hydrogen peroxide-induced cell death in human HL-60 cells assessed as cell viability at 30 uM after 24 hrs by trypan blue exclusion assay; type: functional; conditions: for viability at 30 µM: HL-60, 24 h, read-out: Activity
# HL-60 [3] = experiment: Toxicity against human HL-60 cells at 60 uM after 24 hrs by trypan blue exclusion assay; type: cell-based; conditions: hl-60, 24 h
# [4] = Antioxidant activity assessed as inhibition of lipid peroxidation; type: functional
# HL-60 [5] = experiment: Toxicity against human HL-60 cells at 100 uM after 24 hrs by trypan blue exclusion assay; type: cell-based; conditions: hl-60, 24 h
# HL-60 [6] = experiment: Radical scavenging activity in human HL-60 cells assessed as reduction of hydrogen peroxide-induced ROS generation at 30 uM administered 3 hrs before H2O2 challenge measured after 1 hr by 2',7'-dichlorofluorescein diacetate based flow cytometry; type: functional, cell-based
Compound,Activity (HL-60 [1]),viability at 30 µM (HL-60 [2]),Activity (HL-60 [3]),Activity [4],Activity (HL-60 [2]),Activity (HL-60 [5]),Activity (HL-60 [6])
COc1ccc(/C(O)=C(\O)c2ccc(OC)cn2)nc1,Active,51.9%,Non-toxic,Active,–,–,–
O=C(C(=O)c1ccccn1)c1ccccn1,–,–,–,–,Active,Non-toxic,–
COc1cccc(C(=O)C(=O)c2cccc(OC)n2)n1,–,–,–,–,Active,Non-toxic,–
Cc1ccc(/C(O)=C(\O)c2ccc(C)cn2)nc1,Active,51.9%,Non-toxic,Active,–,–,–
Cc1cc(C(C)(C)C)c(O)c(C(C)(C)C)c1 [BUTYLATED HYDROXYTOLUENE],–,–,–,–,–,Toxic,–
Cc1ccc(C(=O)C(=O)c2ccc(C)cn2)nc1,–,–,–,–,Active,Non-toxic,–
O=C1O[C@H]([C@@H](O)CO)C(O)=C1O [ASCORBIC ACID],Active,37.9%,–,–,–,–,Active
Cc1cccc(/C(O)=C(\O)c2cccc(C)n2)n1,Active,51.9%,–,–,–,Non-toxic,–
COc1cccc(/C(O)=C(\O)c2cccc(OC)n2)n1,Active,51.9%,–,Active,–,Non-toxic,–
COc1ccc(C(=O)C(=O)c2ccc(OC)cn2)nc1,–,–,–,–,inactive,Non-toxic,–
O/C(=C(/O)c1ccccn1)c1ccccn1,Active,42.1%,–,–,–,Non-toxic,–
Cc1cccc(C(=O)C(=O)c2cccc(C)n2)n1,–,–,–,–,Active,Non-toxic,–
